We go through 2 compounds from article PMC12731105, “Design and Synthesis of New Quinoxaline Analogs to Regenerate Sensory Auditory Hair Cells” (Cells, 2025).

SMILES strings stand for the structures. Read-outs that look alike come from different tables or passages of the source.

In data set [1] the test system is zebrafish lateral line neuromast HCs. In words: Zebrafish neuromast morphology scoring (otoferlin/GFP immunofluorescence). It counts as in vivo, zebrafish (Danio rerio). As to conditions: 5-dpf zebrafish, 24 h; for Neuromast morphology scores vs control: 50–300 μg/mL in E3 medium, Kruskal–Wallis, p > 0.05. As for the experimental part: The GFP (Tg(brn3c: GFP) zebrafish larvae expressing HC membrane-bound GFP [19] were used to evaluate the effect of Qx-294 and Qx-301 on HCs and SCs of the lateral line neuromasts. Healthy 5-dpf zebrafish, maintained at 28.5 °C, were randomly distributed into Petri dishes at a density of 50 embryos/larvae per 100 mm^2 and exposed to various concentrations of Qx-294 and Qx-301 (50, 100, 150, 200, 250, and 300 μg/mL) diluted in E3 (5 mM NaCl, 0.17 mM KCl, 0.33 mM CaCl2 and 0.33 MgSO4, pH 7.2) medium for 24 h. Following treatment, the animals were transferred to E3 media for 30 min to recover, then cryoanesthetized and fixed with 4% paraformaldehyde (PFA) overnight at 4 °C. The following neuromasts were analyzed in our studies: IO4 (infraorbital 4), OP1 (opercular 1), M2 (mandibular 2), O1 (otic 1), O2, and MI2 (middle 2). An arbitrary scoring protocol was used to rank the morphology of each neuromast after treatment as follows: 1 (normal rosette-like shape, HCs look normal, HC bundles are properly arranged), 2 (normal rosette-like shape, a few HCs appear to be missing, but HC bundles are properly arranged), 3 (normal rosette-like morphology but several HCs are gone and HC bundles look disturbed), 4 (the rosette-like shape is lost in certain areas, few HCs, and few disrupted HC bundles), and 5 (no rosette-like shape, one or two dispersed HCs and no HC bundles). At least 25 animals per treatment were assessed, for a total of 200 across the entire study. The assessment was performed in a double-blind and unbiased manner. Scores were expressed as percentages of the total of neuromasts analyzed per treatment.
Cochlear dissection in mice and immunofluorescence experiments on zebrafish neuromasts and mouse cochleae were performed as previously described. The antibody and labeling kits used in this study included Otoferlin (Developmental Studies Hybridoma Bank, Iowa City, IA, USA, HCS-1), GFP (Novus Biologicals, NB100-1614), and rabbit anti-myosin VIIa (M7a) (Thermo Scientific, Waltham, MA, USA, PA1-936). Species-specific Alexa Fluor-conjugated secondary antibodies were used for detection. Phalloidin conjugated to Alexa 488 (Thermo Scientific, Waltham, MA, USA, O7466) and DAPI were used for labeling stereocilia and the nucleus, respectively.

The subject of data set [2] is mouse organ of Corti. Put plainly: TUNEL assay in the mouse organ of Corti. As to conditions: mice, any treatment group (24, 48, 72 h). It counts as in vivo. As for the experimental part: (§1) C57BL/6J male and female mice between postnatal day 24 and 30 P-24-30) were randomized into control and experimental groups (9 mice per group per compound), with each experimental group receiving a single intraperitoneal (IP) injection of Qx-294 or Qx-301 at a dose of 300 mg/kg body weight, dissolved in dimethyl sulfoxide (DMSO). Controls consisted of treatment with DMSO alone (vehicle). A total of 90 adult wild-type C57/BL6 mice were used in this study. Based on the analysis, animals were examined at various times following treatment as described below.
In vitro cell proliferation effects of all ten initial compounds (Figure 1A,B) were tested on HEI-OC1, Neuro-2A and HT-1080 cells by TACS® 3-(4,5-dimethylthiazol-2-yl)-2,5-diphenyltetrazolium bromide (MTT) Cell Proliferation Assay (R&D Systems, Minneapolis, MN, USA, 4890-025-K), following the manufacturer’s protocol. Absorbance was measured with SpectraMax® M Series Multi-Mode Microplate Reader with Soft Max Pro 7.2 GxP Software (Molecular Devices, Sunnyvale, CA, USA), and the average OD in control cells was taken as 100% of viability. Upon selecting the most viable compounds (Qx-294 and Qx-301), we proceeded with in vivo experiments. […]

Data set [3] concerns mouse auditory function. In words: Auditory brainstem response (ABR). The class given is in vivo, mice (Mus musculus). As to conditions: for ABR vs control, 24 h treatment / ABR hearing vs control: C57BL/6J mice; for ABR vs control, 24 h treatment: 24 h post-treatment; for ABR hearing vs control: greater benefits at higher frequencies and at 48 and 72 h, Two-Way ANOVA, p < 0.01; for Frequency at which modest improvement in hearing threshold begins: audiometric threshold shift (ABR/DPOAE) vs vehicle-only controls. As for the experimental part:
as §1
Mice from all groups underwent auditory brainstem response (ABR) and distortion product otoacoustic emissions (DPOAEs) tests before the initiation of treatment with either compounds or vehicle, and at 24, 48, and 72 h post-treatment, as described below. After audiometric testing, pre-treatment mice were placed in a warm and clean cage and monitored until they were awake and able to remain upright in a sternal position. Alternatively, post-treatment mice had their cochleae processed for histological examination.
Mice were anesthetized with a ketamine (18 mg/mL) and xylazine (2 mg/mL) solution (5–9 μL per gram body weight injected intraperitoneally). Core body temperature was maintained at 37.0 ± 0.1 C using a homeothermic heating pad system (FHC, Inc., Bowdoin, ME, USA). Tone burst stimuli were generated and controlled using Tucker Davis Technologies (TDT, Gainesville, FL, USA) System III (RX6, PA5 components). Tone bursts at 8, 16, 32, and 41.2 kHz had 1.0 ms rise-fall times with 1.0 ms plateau (3 ms total duration) and alternating stimulus polarity. Stimuli for ABR testing were calibrated using a Bruel & Kjaar type 4138 ¼” microphone and Nexus type 2691 conditioning amplifier. Stimuli were calibrated in dB peSPL and presented via high-frequency transducers (TDT SA1 driver, MF1 speakers) coupled at the ear via PE tubing. Auditory stimuli were presented at a rate of 17 stimuli per second.

Data set [4] is described as follows: PAMPA permeability assay. The class given is in vitro ADME. The method, then:
The parallel artificial membrane permeability assay (PAMPA), an artificial membrane that simulates a biological membrane, was used. A 96-well membrane filter-based microtiter plate system with donor and acceptor compartments separated by the membrane was employed. The compounds were dissolved in 5% DMSO in phosphate-buffered saline (PBS) solution with Lucifer yellow, a dye used to assess membrane integrity. The solution was placed in the donor well, and PBS was added to the acceptor well. The membrane was generated by dissolving lecithin in an inert organic solvent and placed onto a hydrophobic PVDF filter.

Consider `c1ccc2nc(N3CCOCC3)cnc2c1` [Qx-294, 2-(morpholine)-quinoxaline], for which the “Neuromast morphology scores vs control” value in data set [1] is “did not differ significantly from those of the control group”. Further, the “Neuromast morphology at 50 and 150 μg/mL” value in data set [1] (not statistically significant) is recorded as “some HC loss was observed”. Further, in data set [2], the “Apoptosis (TUNEL) in the OC” value is “no signs of apoptosis”. In data set [3], the “ABR vs control, 24 h treatment” value is listed as “no statistically significant differences”; the “ABR hearing vs control” value is “improved hearing for all test frequencies”; the “Frequency at which modest improvement in hearing threshold begins” value is at least 16 kHz. In data set [4] (16 h incubation), the Permeability is 3.5 ± 3.0 ×10^−6 cm/s^−1. Moreover, in data set [4] (read-out: PAMPA permeability), the Papp at 16 h was around 3.5 ×10⁻⁶ cm/s.
Regarding `c1ccc2nc(N3CCCC3)cnc2c1` [Qx-301, 2-(pyrrolidine)-quinoxaline], in data set [1], the “Neuromast morphology scores vs control” value is on record as “did not differ significantly from those of the control group”. Also, in data set [1] (not statistically significant), the “Neuromast morphology at the highest concentrations vs control” value was “improved morphology”. The “Apoptosis (TUNEL) in the OC” value in data set [2] is “no signs of apoptosis”. Also, in data set [3], the “ABR vs control, 24 h treatment” value was “no statistically significant differences”; the “ABR hearing vs control” value is recorded as “improved hearing for all test frequencies”; the “Frequency at which modest improvement in hearing threshold begins” value was at least 22.6 kHz. Further, the Papp at 16 h in data set [4] (16 h incubation, read-out: Permeability) turned out to be 0.77 ± 0.91 ×10⁻⁶ cm/s.
